Source: patent publication US9927437B2, “Treating neurodegenerative disease” (THE BRIGHAM AND WOMEN'S HOSPITAL, INC., priority 2013, dated 2018)
Entries after “also recorded” stand apart in the source; their conditions may differ.

How the values were obtained:
[1] = tested on: inflammatory monocytes; test: Recruitment of inflammatory monocytes to the CNS of EAE NOD mice (flow cytometry); format: in vivo, mouse; settings: PDMP as in FIG. 1k, CD11b+Ly6C^high or CD11b+CD45^high
[2] = tested on: human primary astrocytes; test: Activation of human primary astrocytes with IL-1β or poly(I:C), qPCR; format: cell-based; settings: PDMP 25 μM; IL-1β 10 ng/ml or Poly (I:C) 10 μg/ml, 6 h
Text: FIG. 6a-d. […] Autopsy samples were obtained from lesions (n=10) or NAWM (n=5) from MS, non-MS CNS inflammatory diseases (NMSCID, including viral encephalitis, Rasmussen's encephalitis and ADEM, n=5) patients and healthy controls (n=6). (a) qPCR analysis of B4GALT5 and B4GALT6 mRNA expression in CNS samples relative to ACTB. (b) IF analysis of B4GALT6, CCL2 and iNOS in GFAP+ astrocytes in NAWM and Lesion of MS patients. (c) LacCer levels determined in CNS samples, relative to protein content. Statistical analysis by one-way ANOVA, followed by Tukey post-hoc analysis. (d) Primary human astrocytes were pre-treated with PDMP (25 μM) or vehicle, and activated with IL-1β (10 ng/ml) or Poly (I:C) (10 μg/ml) or left untreated (control). RNA was harvested 6 h later and the expression of CCL2, CCL5, COX2, IL6, NOS2, and TLR2 was analyzed by qPCR relative to ACTB in 3 independent experiments. Statistical analysis by Student's t-test. Data presented are mean and s.e.m. *P<0.05, **P<0.01 and ***P<0.001.
Human fetal astrocytes were isolated as previously described^57 from human CNS tissue from fetuses at 17-23 wk of gestation obtained from the Human Fetal Tissue Repository (Albert Einstein College of Medicine, Bronx, N.Y.) following Canadian Institutes for Health Research-approved guidelines. Cultures were >90% pure.

[3] = tested on: Naïve C57BL/6 and NOD mice; test: LacCer administration to naïve mice without MOG immunization; format: in vivo; settings: 10 μg per mouse, absence of MOG immunization
Description: FIGS. 12a-i. […] (a) Naïve C57BL/6 (Left panel) and NOD (right panel) mice were treated with LacCer (10 μg per mouse) or vehicle as indicated by red arrows, and EAE clinical scores was recorded. At experimental end point (day 25), astrocytes were isolated and their transcriptional profile was determined by nCounter Nanostring analysis. (b-e) EAE was induced in C57BL/6 (b, c) or NOD mice (d, e) and LacCer or vehicle were administrated as in FIGS. 1g and 1h, respectively. Splenic T-cell recall response to MOG(35-55) (20 μg/ml); proliferation (b, d) and secretion of IL-17A, IFN-γ and IL-10 cytokines (c, e). Data are representative of two independent experiments with ≥8 mice/group (mean and s.e.m.). (f-i) EAE NOD mice were treated with PDMP or vehicle during the chronic phase as in FIG. 1K. Data are representative of three independent experiments with n≥8 mice/group (mean and s.e.m.). (f) qPCR analysis of the expression of tbx21, ifng, rorc, il17A, csf2, il10, foxp3, and tgfb1 mRNA of CD3^+CD4^+ T-cells isolated from the CNS; expression is presented relative to gapdh. (g, h) Recall response to MOG(35-55) (20 μg/ml); proliferation (g) and secretion of IL-17A, IFN-γ and IL-10 cytokines (h). (i) Expression of IFN-γ, IL-17A, Foxp3 and IL-10 by splenic CD3^+CD4^+ T cells (mean and s.e.m.).

[4] = tested on: leptomeningeal phagocytes; test: Transcriptional response of leptomeningeal phagocytes to LPS/IFNγ; format: cell-based, mouse; settings: LacCer 10 μM 1 h, LPS/IFNγ 6 h
Description: (§1) FIGS. 15a-b. […] Leptomeningeal phagocytes (a) and choroid plexus cells (b) were pre-treated for 1 h with LacCer (10 μM), or vehicle control (vehicle), followed by activation with LPS/IFNγ for 6 h, or left un-treated (control, Con). mRNA expression was determined by nCounter Nanostring analysis. Representative data of two independent experiments.
The meninges were carefully stripped from the brains of 1- to 3-day-old neonatal mice, and digested with 1% collagenase for 20 min at 37° C., and then dispersed into a single-cell level. Isolated cells, were incubated with anti-mouse CD16/CD32 for 15 min on ice to block the Fc receptors, and stained with APC-conjugated antibody for CD11b (M1/70) for 30 min at 4° C. Cells were washed, incubated with 7-AAD for exclusion of dead cells, and sorted.

[5] = tested on: choroid plexus cells; test: Transcriptional response of choroid plexus cells to LPS/IFNγ; format: cell-based, mouse; settings: LacCer 10 μM 1 h, LPS/IFNγ 6 h
Description: as §1
Mouse primary choroid plexus cells were prepared as described^55,56 with minor modifications. In brief, the choroid plexus was removed from 1- to 3-day-old neonatal mice, digested with 1% collagenase for 20 min at 37° C., and then dispersed into a single-cell level. The cell suspension was washed in culture medium for choroid plexus cells [Dulbecco's modified Eagle medium/Ham's F12 (Invitrogen) supplemented with 10% foetal calf serum (Sigma-Aldrich), 1 mM 1-glutamine, 1 mM sodium pyruvate, 100 U/ml penicillin, […] streptomycin, […] insulin, […] Ara-C) and cultured (2.5×10^5 cells/well) at 37° C., 5% CO2 in poly-D-lysine coated 24-well plates. After 24 h, the medium was changed, and the cells were either left untreated or treated as described.

[6] = tested on: C8-D30 astrocytes; test: In vitro knock-down with shRNA in C8-D30 astrocytes, LPS/IFNγ activation; format: cell-based, mouse; settings: lentivirus-delivered shRNA

Compound: CCCCCCCCCC(=O)N[C@H](CN1CCOCC1)[C@H](O)c1ccccc1 [PDMP, D-threo-1-phenyl-2-decanoylamino-3-morpholino-1-propanol]
- frequency of inflammatory monocytes recruited to the CNS [1]: significantly reduced
- total numbers of inflammatory monocytes recruited to the CNS [1]: significantly reduced
- CCL2, CCL5, COX2, IL6, NOS2 and TLR2 expression [2]: significant decrease

Compound: lactosylceramide [LacCer]
- induction of EAE-like disease [3]: did not result in the induction of EAE-like disease
- transcriptional response to activation of leptomeningeal phagocytes [4]: did not affect the transcriptional response; also recorded: does not affect the transcriptional response
- transcriptional response to activation of choroid plexus cells [5]: did not affect the transcriptional response; also recorded: does not affect the transcriptional response

Compound: shB4galt6: lentivirus-delivered shRNA against b4galt6 (TRCN0000334278; SEQ ID NO:3) (guide CGATGGACTGAACAATTTATTCTCGAGAATAAATTGTTCAGTCCACG)
- up-regulation of h2-Aa, ccl5 and cxcl10 expression [6]: significantly suppressed the up-regulation
